Results as given in EP3074389B1, “QUINOLINE DERIVATIVES AS BROMODOMAIN INHIBITORS” (Gilead Sciences, Inc., priority 2013, dated 2015).

Legend:
BRD4 domain 2 = BRD4 domain 2 (Homo sapiens, UniProt O60885); assay: Kd determination of inhibitors binding to BRD4 domain 2 (Epic label-free platform); conditions: direct binding to immobilized BRD4 domain 2; tripling dilution series from 20µM; about 1hr equilibrium; rounded to whole number
Description: (§1) Kd Determination of Inhibitors Binding to BRD4 Domain 1 and Domain 2
(§2) The binding of small molecule inhibitors to either BRD4 domain 1 or domain 2 were determined using the Epic, high-throughput, label-free platform (Corning, Lowell, MA). The Epic instrument incorporates an evanescent waveguide sensor within each well of its proprietary 384-well microplates. Direct binding of inhibitors to BRD4 immobilized onto the microplate well surface can be detected by exposing the waveguide to a broadband light source. The resulting resonant wavelength shift (measured in picometers (pm)) is proportional to the mass bound to the surface. Epic biochemical plates (Corning, Lowell, MA) were activated by adding 15 µL/well of 200 mM EDC and 50 mM Sulfo-NHS (Pierce Thermo Scientific, Rockford, IL) and incubated for 60 minutes at room temperature. Plates were washed three times with MilliQ water and dried by centrifugation (1 minute at 400 rpm). BRD4 immobilization was accomplished by resuspending the protein at a concentration of 150 µg/mL in 20 mM HEPES (pH 7) and adding 10 µL/well. […] Compound/inhibitor binding was determined by calculating difference between the baseline (first read) and second read. The resulting binding response was fitted to a single site binding isotherm in order to determine an equilibrium dissociation constant (Kd).

BRD4 domain 1 = BRD4 domain 1 (Homo sapiens, UniProt O60885); assay: Kd determination of inhibitors binding to BRD4 domain 1 (Epic label-free platform); conditions: direct binding to immobilized BRD4 domain 1; tripling dilution series from 20µM; about 1hr equilibrium; rounded to whole number; read-out: Epic Kd BRD41
Description: as §1, §2

Row | SMILES | Kd (BRD4 domain 2) [nM] | Kd (BRD4 domain 1) [nM]
1 | Cc1noc(C)c1-c1cc(S(=O)(=O)NC2CCCC2)c2cc(NC3CCN(C)CC3)c(=O)[nH]c2c1 [Compound 66, N-cyclopentyl-7-(3,5-dimethylisoxazol-4-yl)-3-((1-methylpiperidin-4-yl)amino)-2-oxo-1,2-dihydroquinoline-5-sulfonamide] | 421 | 520
2 | Cc1noc(C)c1-c1cc(S(=O)(=O)NC2CCCC2)c2cc(NCc3cccnc3)c(=O)[nH]c2c1 [Compound 67, N-cyclopentyl-7-(3,5-dimethylisoxazol-4-yl)-2-oxo-3-((pyridin-3-ylmethyl)amino)-1,2-dihydroquinoline-5-sulfonamide] | 404 | 444
3 | Cc1noc(C)c1-c1cc(S(=O)(=O)NC2CC2)c2ccc(=O)[nH]c2c1 [Compound 68, N-cyclopropyl-7-(3,5-dimethylisoxazol-4-yl)-2-oxo-1,2-dihydroquinoline-5-sulfonamide] | 2920 | 13800
4 | Cc1noc(C)c1-c1cc(S(=O)(=O)NC2CCCC2)c2cc(C(N)=O)c(=O)[nH]c2c1 [Compound 69, 5-(N-cyclopentylsulfamoyl) -7-(3,5-dimethylisoxazol-4-yl)-2-oxo-1,2-dihydroquinoline-3-carboxamide] | 1190 | 7270
5 | Cc1noc(C)c1-c1cc(S(=O)(=O)NC2CCCC2)c2cc(C(=O)O)c(=O)[nH]c2c1 [Compound 70, 5-(N-cyclopentylsulfamoyl) -7-(3,5-dimethylisoxazol-4-yl)-2-oxo-1,2-dihydroquinoline-3-carboxylic acid] | 1960 | 8230
6 | Cc1noc(C)c1-c1cc(S(=O)(=O)N[C@@H]2CCC[C@H]2C(=O)N2CCN(C)CC2)c2cccnc2c1 [Compound 71, 7-(3,5-dimethylisoxazol-4-yl)-N-((1R,2R)-2-(4-methylpiperazine-1-carbonyl)cyclopentyl) quinoline-5-sulfonamide] | 4150 | 4890
7 | Cc1noc(C)c1-c1cc(S(=O)(=O)N[C@@H]2CCC[C@H]2C(=O)NCCN)c2cccnc2c1 [Compound 72, (1R,2R)-N-(2-aminoethyl)-2-(7-(3,5-dimethylisoxazol-4-yl)quinoline-5-sulfonamido)cyclopen tanecarboxamide] | 2330 | 1440
8 | CC(=O)NCCNC(=O)[C@@H]1CCC[C@H]1NS(=O)(=O)c1cc(-c2c(C)noc2C)cc2ncccc12 [Compound 73, (1R,2R)-N-(2-acetamidoethyl)-2-(7-(3,5-dimethylisoxazol-4-yl)quinoline-5-sulfonamido)cyclopen tanecarboxamide] | 16700 | > 20000
9 | Cc1noc(C)c1-c1cc(S(=O)(=O)NCCN)c2cccnc2c1 [Compound 74, N-(2-aminoethyl)-7-(3,5-dimethylisoxazol-4-yl)quinoline-5-sulfonamide] | 17500 | 14100
10 | Cc1noc(C)c1-c1cc(S(=O)(=O)NC2CCCC2)c2cc(C(=O)N(C)C)c(=O)[nH]c2c1 [Compound 75, 5-(N-cyclopentylsulfamoyl) -7-(3,5-dimethylisoxazol-4-yl)-N,N-dimethyl-2-oxo-1,2-dihydroquinoline-3 - carboxamide] | 8940 | 10700
11 | Cc1noc(C)c1-c1cc(S(=O)(=O)NC2CCCC2)c2cc(NCC3CC3)c(=O)[nH]c2c1 [Compound 76, N-cyclopentyl-3-((cyclopropylmethyl)amino)-7-(3,5-dimethylisoxazol-4-yl)-2-oxo-1,2-dihydroquinoline-5-sulfonamide] | 497 | 416
12 | Cc1noc(C)c1-c1cc(S(=O)(=O)NC2CCCC2)c2cc(NC(C)C)c(=O)[nH]c2c1 [Compound 77, N-cyclopentyl-7-(3,5-dimethylisoxazol-4-yl)-3-(isopropylamino)-2-oxo-1,2-dihydroquinoline-5-sulfonamide] | 610 | 896
13 | Cc1noc(C)c1-c1cc(S(=O)(=O)NC2CCCC2)c2cc(NCCN)c(=O)[nH]c2c1 [Compound 78, 3-((2-aminoethyl)amino)-N-cyclopentyl-7-(3,5-dimethylisoxazol-4-yl)-2-oxo-1,2-dihydroquinoline-5-sulfonamide] | 392 | 744
14 | Cc1noc(C)c1-c1cc(S(=O)(=O)NC2CCCC2)c2cc(NCC(F)F)c(=O)[nH]c2c1 [Compound 79, N-cyclopentyl-3-((2,2-difluoroethyl)amino)-7-(3,5-dimethylisoxazol-4-yl)-2-oxo-1,2-dihydroquinoline-5-sulfonamide] | 607 | 1350
15 | Cc1noc(C)c1-c1cc(S(=O)(=O)NC2CC2)c2ccc(N3CCNCC3)nc2c1 [Compound 80, N-cyclopropyl-7-(3,5-dimethylisoxazol-4-yl)-2-(piperazin-1-yl)quinoline-5-sulfonamide] | 1390 | 1730
16 | Cc1noc(C)c1-c1cc(S(=O)(=O)N[C@@H](CC(C)(C)C)C(=O)N2CCNCC2)c2cccnc2c1 [Compound 81, (S)-N-(4,4-dimethyl-1-oxo-1-(piperazin-1-yl)pentan-2-yl)-7-(3,5-dimethylisoxazol-4-yl)quinoline-5-sulfonamide] | > 20000 | 13700
17 | Cc1noc(C)c1-c1cc(S(=O)(=O)N[C@@H]2CCC[C@H]2O)c2ccc(=O)[nH]c2c1 [Compound 82, 7-(3,5-dimethylisoxazol-4-yl)-N-((1R,2R)-2-hydroxycyclopentyl)-2-oxo-1,2-dihydroquinoline-5-sulfonamide] | 1900 | 1920
18 | Cc1noc(C)c1-c1cc(S(=O)(=O)NC2CC2(C)C)c2cccnc2c1 (stereo not drawn) [Compound 83] | 16600 | 16700
19 | Cc1noc(C)c1-c1cc(S(=O)(=O)NC2(C(F)(F)F)CC2)c2cccnc2c1 [Compound 84, 7-(3,5-dimethylisoxazol-4-yl)-N-(1-(trifluoromethyl)cyclopropyl)quinoline-5-sulfonamide] | 18200 | 2000
20 | COCCNc1cc2c(S(=O)(=O)N[C@@H]3CCC[C@H]3O)cc(-c3c(C)noc3C)cc2[nH]c1=O [Compound 85, 7-(3,5-dimethylisoxazol-4-yl)-N-((1R,2R)-2-hydroxycyclopentyl)-3-((2-methoxyethyl)amino)-2-oxo-1,2-dihydroquinoline-5-sulfonamide] | 429 | 483
21 | Cc1noc(C)c1-c1cc(S(=O)(=O)NC2CCCC2)c2nccnc2c1 [Compound 86, N-cyclopentyl-7-(3,5-dimethylisoxazol-4-yl)quinoxaline-5-sulfonamide] | 2460 | 3480
22 | Cc1noc(C)c1-c1cc(S(=O)(=O)NC2CCCC2)c2ncc(=O)[nH]c2c1 [Compound 87, N-cyclopentyl-7-(3,5-dimethylisoxazol-4-yl)-2-oxo-1,2-dihydroquinoxaline-5-sulfonamide] | 1340 | 2200
23 | Cc1noc(C)c1-c1cc(S(=O)(=O)NC2CCCC2)c2cc(NCCN(C)C)c(=O)[nH]c2c1 [Compound 88, N-cyclopentyl-3-((2-(dimethylamino)ethyl)amino)-7-(3,5-dimethylisoxazol-4-yl)-2-oxo-1,2-dihydroquinoline-5-sulfonamide] | 943 | 1060
24 | Cc1noc(C)c1-c1cc(S(=O)(=O)NC2CCCC2)c2cc(NCCN3CCCC3)c(=O)[nH]c2c1 [Compound 89, N-cyclopentyl-7-(3,5-dimethylisoxazol-4-yl)-2-oxo-3-((2-(pyrrolidin-1-yl)ethyl)amino)-1,2-dihydroquinoline-5-sulfonamide] | 656 | 881
